{
  "source": "ChEMBL document CHEMBL3797079",
  "about": "“Synergistic reduction of HIV-1 infectivity by 5-azacytidine and inhibitors of ribonucleotide reductase” (Bioorg Med Chem, 2016)",
  "key": {"[1]": {"tested_on": "Human immunodeficiency virus 1", "assay": "Antiviral activity against VSV-G pseudotyped HIV-1 NL4-3 infected in human U373-MAGI cells assessed as reduction in viral infectivity at 50 nM incubated for 4 hrs prior to viral infection measured at 72 hrs post infection by flow cytometric analysis", "type": "functional, organism-based"}, "U373-MAGI [2]": {"tested_on": "U373-MAGI", "assay": "Increase in 5-aza-dCTP/dCTP ratio in human U373-MAGI cells at 50 nM preincubated for 2 hrs followed by 5-aza-dC addition measured after 4 hrs by LC-MS/MS analysis relative to 5-aza-dC", "type": "functional, cell-based"}, "U373-MAGI [3]": {"tested_on": "U373-MAGI", "assay": "Reduction in dGTP level in human U373-MAGI cells at 50 nM after 6 hrs by LC-MS/MS analysis", "type": "functional, cell-based"}, "U373-MAGI [4]": {"tested_on": "U373-MAGI", "assay": "Increase in 5-aza-dCTP/dCTP ratio in human U373-MAGI cells at 200 nM preincubated for 2 hrs followed by 5-aza-C addition measured after 4 hrs by LC-MS/MS analysis relative to 5-aza-C", "type": "functional, cell-based"}, "U373-MAGI [5]": {"tested_on": "U373-MAGI", "assay": "Effect on 5-aza-dCTP level in human U373-MAGI cells at 50 nM preincubated for 2 hrs followed by 5-aza-dC addition measured after 4 hrs by LC-MS/MS analysis", "type": "functional, cell-based"}, "U373-MAGI [6]": {"tested_on": "U373-MAGI", "assay": "Effect on 5-aza-dCTP level in human U373-MAGI cells at 200 nM preincubated for 2 hrs followed by 5-aza-dC addition measured after 4 hrs by LC-MS/MS analysis", "type": "functional, cell-based"}, "U373-MAGI [7]": {"tested_on": "U373-MAGI", "assay": "Increase in 5-aza-dCTP/dCTP ratio in human U373-MAGI cells at 200 nM preincubated for 2 hrs followed by 5-aza-dC addition measured after 4 hrs by LC-MS/MS analysis relative to 5-aza-dC", "type": "functional, cell-based"}, "U373-MAGI [8]": {"tested_on": "U373-MAGI", "assay": "Reduction in dCTP level in human U373-MAGI cells at 200 nM preincubated for 2 hrs followed by 5-aza-dC addition measured after 4 hrs by LC-MS/MS analysis relative to 5-aza-dC", "type": "functional, cell-based"}, "U373-MAGI [9]": {"tested_on": "U373-MAGI", "assay": "Effect on dRGU-TP level in human U373-MAGI cells at 200 nM preincubated for 2 hrs followed by 5-aza-dC addition measured after 4 hrs by LC-MS/MS analysis", "type": "functional, cell-based"}, "U373-MAGI [10]": {"tested_on": "U373-MAGI", "assay": "Reduction in dCTP level in human U373-MAGI cells at 200 nM preincubated for 2 hrs followed by 5-aza-C addition measured after 4 hrs by LC-MS/MS analysis relative to 5-aza-C", "type": "functional, cell-based"}, "U373-MAGI [11]": {"tested_on": "U373-MAGI", "assay": "Reduction in dRGU-TP level in human U373-MAGI cells at 50 nM preincubated for 2 hrs followed by 5-aza-C addition measured after 4 hrs by LC-MS/MS analysis", "type": "functional, cell-based"}, "U373-MAGI [12]": {"tested_on": "U373-MAGI", "assay": "Reduction in 5-aza-dCTP level in human U373-MAGI cells at 200 nM preincubated for 2 hrs followed by 5-aza-C addition measured after 4 hrs by LC-MS/MS analysis", "type": "functional, cell-based"}, "U373-MAGI [13]": {"tested_on": "U373-MAGI", "assay": "Reduction in dCTP level in human U373-MAGI cells at 50 nM preincubated for 2 hrs followed by 5-aza-C addition measured after 4 hrs by LC-MS/MS analysis", "type": "functional, cell-based"}, "[14]": {"assay": "Reduction in dATP level in human U373-MAGI cells at 50 nM after 6 hrs by LC-MS/MS analysis", "type": "functional", "set-up": "scale not given: the % may be the effect or the level left"}, "U373-MAGI [15]": {"tested_on": "U373-MAGI", "assay": "Reduction in dGTP level in human U373-MAGI cells at 200 nM after 6 hrs by LC-MS/MS analysis", "type": "functional, cell-based"}, "U373-MAGI [16]": {"tested_on": "U373-MAGI", "assay": "Effect on dRGU-TP level in human U373-MAGI cells at 50 nM preincubated for 2 hrs followed by 5-aza-dC addition measured after 4 hrs by LC-MS/MS analysis", "type": "functional, cell-based"}, "U373-MAGI [17]": {"tested_on": "U373-MAGI", "assay": "Increase in 5-aza-dCTP/dCTP ratio in human U373-MAGI cells at 50 nM preincubated for 2 hrs followed by 5-aza-C addition measured after 4 hrs by LC-MS/MS analysis relative to 5-aza-C", "type": "functional, cell-based"}, "U373-MAGI [18]": {"tested_on": "U373-MAGI", "assay": "Reduction in 5-aza-dCTP level in human U373-MAGI cells at 50 nM preincubated for 2 hrs followed by 5-aza-C addition measured after 4 hrs by LC-MS/MS analysis", "type": "functional, cell-based"}, "[19]": {"assay": "Cytotoxicity against human U373-MAGI cells at 50 nM measured at 72 hrs by Celltiter-Glo luminescent cell viability assay", "type": "cell-based", "conditions": "0.05 µM"}, "U373-MAGI [20]": {"tested_on": "U373-MAGI", "assay": "Reduction in dCTP level in human U373-MAGI cells at 200 nM after 6 hrs by LC-MS/MS analysis", "type": "functional, cell-based"}, "U373-MAGI [21]": {"tested_on": "U373-MAGI", "assay": "Reduction in dRGU-TP level in human U373-MAGI cells at 200 nM preincubated for 2 hrs followed by 5-aza-C addition measured after 4 hrs by LC-MS/MS analysis", "type": "functional, cell-based"}, "U373-MAGI [22]": {"tested_on": "U373-MAGI", "assay": "Reduction in dCTP level in human U373-MAGI cells at 50 nM preincubated for 2 hrs followed by 5-aza-dC addition measured after 4 hrs by LC-MS/MS analysis relative to 5-aza-dC", "type": "functional, cell-based"}, "U373-MAGI [23]": {"tested_on": "U373-MAGI", "assay": "Reduction in dTTP level in human U373-MAGI cells at 50 nM after 6 hrs by LC-MS/MS analysis", "type": "functional, cell-based"}, "[24]": {"tested_on": "Human immunodeficiency virus 1", "assay": "Potentiation of 5-Aza-C-induced antiviral activity against VSV-G pseudotyped HIV-1 NL4-3 infected in human U373-MAGI cells assessed as decrease in 5-Aza-C EC50 at 50 nM preincubated for 2 hrs followed by 5-Aza-C addition for 2 hrs and subsequent viral infection measured at 72 hrs post infection by flow cytometric analysis relative to control", "type": "functional"}, "U373-MAGI [25]": {"tested_on": "U373-MAGI", "assay": "Reduction in dCTP level in human U373-MAGI cells at 50 nM after 6 hrs by LC-MS/MS analysis", "type": "functional, cell-based"}, "U373-MAGI [26]": {"tested_on": "U373-MAGI", "assay": "Reduction in dTTP level in human U373-MAGI cells at 200 nM after 6 hrs by LC-MS/MS analysis", "type": "functional, cell-based"}, "U373-MAGI [27]": {"tested_on": "U373-MAGI", "assay": "Reduction in dATP level in human U373-MAGI cells at 200 nM after 6 hrs by LC-MS/MS analysis", "type": "functional, cell-based"}},
  "note": "Calls of active or inactive are those of the source. No cut-off for these calls is given here.",
  "data": [
    {"smiles": "Nc1nc(Cl)nc2c1ncn2[C@@H]1O[C@H](CO)[C@@H](O)[C@@H]1F", "note": "[CLOFARABINE]", "values": [
      {"measurement": "Activity", "setting": "[1]", "result": "Active"},
      {"measurement": "Activity", "setting": "U373-MAGI [2]", "result": "Active"},
      {"measurement": "Activity", "setting": "U373-MAGI [3]", "result": "inactive"},
      {"measurement": "Activity", "setting": "U373-MAGI [4]", "result": "inactive"},
      {"measurement": "Activity", "setting": "U373-MAGI [5]", "result": "inactive"},
      {"measurement": "Activity", "setting": "U373-MAGI [6]", "result": "inactive"},
      {"measurement": "Activity", "setting": "U373-MAGI [7]", "result": "Active"},
      {"measurement": "Activity", "setting": "U373-MAGI [8]", "result": "Active"},
      {"measurement": "Activity", "setting": "U373-MAGI [9]", "result": "inactive"},
      {"measurement": "Activity", "setting": "U373-MAGI [10]", "result": "Active"},
      {"measurement": "Activity", "setting": "U373-MAGI [11]", "result": "inactive"},
      {"measurement": "Activity", "setting": "U373-MAGI [12]", "result": "Active"},
      {"measurement": "Activity", "setting": "U373-MAGI [13]", "result": "Active"},
      {"measurement": "Activity", "setting": "[14]", "result": 30, "unit": "%"},
      {"measurement": "Activity", "setting": "U373-MAGI [15]", "result": "Active"},
      {"measurement": "Activity", "setting": "U373-MAGI [16]", "result": "inactive"},
      {"measurement": "Activity", "setting": "U373-MAGI [17]", "result": "inactive"},
      {"measurement": "Activity", "setting": "U373-MAGI [18]", "result": "inactive"},
      {"measurement": "Activity", "setting": "[19]", "result": "Non-toxic"},
      {"measurement": "Activity", "setting": "U373-MAGI [20]", "result": "Active"},
      {"measurement": "Activity", "setting": "U373-MAGI [21]", "result": "Active"},
      {"measurement": "Activity", "setting": "U373-MAGI [22]", "result": "Active"},
      {"measurement": "Activity", "setting": "U373-MAGI [23]", "result": "inactive"},
      {"measurement": "fold change (FC)", "setting": "[24]", "result": 2.5},
      {"measurement": "Activity", "setting": "U373-MAGI [25]", "result": "inactive"},
      {"measurement": "Activity", "setting": "U373-MAGI [26]", "result": "inactive"},
      {"measurement": "Activity", "setting": "U373-MAGI [27]", "result": "Active"}
    ]}
  ]
}
